The values below come from patent US20250249001A1, “METHODS OF TREATING SUBSTANCE USE DISORDER WITH 4-(3-CYANOPHENYL)-6-PYRIDINYLPYRIMIDINE MGLU5 NEGATIVE ALLOSTERIC MODULATORS” (Tempero Bio, Inc., priority 2022, published 2025).

This assay concerns cocaine-induced CPP in male SD rats. It counts as in vivo, Sprague Dawley rats. To be noted: cocaine 10 mg/kg IP on days 3, 5, 7, 9; day 10 bias test. The method, then: Animals: Male Sprague Dawley rats (Envigo, IN, 275-299 g) were group housed upon arrival (2 per cage). All rats were examined and handled to assure adequate health and suitability. During the study, a 12/12 light/dark cycle was maintained (lights switched on at 7:00 am). The room temperature was maintained between […] and 23° C. with a relative humidity maintained around 50%. Chow (LabDiet #5001) and water were provided ad libitum for the duration of the study. The test was performed during the animal's light cycle phase.
Cocaine (10 mg/kg) was dissolved in saline and injected IP at a dose volume of 1 ml/kg. Cocaine was administered on training days 3, 5, 7 and 9 immediately prior to training.
3-((2-Methyl-4-thiazolyl)ethynyl)pyridine (MTEP, 3 mg/kg), was dissolved in saline and injected IP on day 10 (bias test) at a dose volume of 1 ml/kg 30 minutes prior to testing.
Compound 1 (1, 3 and 10 mg/kg) was formulated in 10% Solutol HS15 and 90% (10% aqueous 2-hydroxypropyl-β-cyclodextrin) and injected IP on day 10 (bias test) at a dose volume of 2 ml/kg. Compound 1 was administered 30 minutes prior to testing.
The chamber used in this study contained two compartments [(60 cm (L)×40 cm (W)×24 cm (H)]. The compartment used for each animal and drug pairing was assigned and counterbalanced in advance and adjusted as necessary in the rebalancing procedure after day 1 (see details below). Within the chamber, visual and physical features were used to create the two distinct compartments. For example, one compartment may have a flat plastic floor with white stripes and the other may have a textured floor and black stripes. The chambers were cleaned with 70% alcohol in between runs.
Testing sessions were recorded on days 1 and 10 to determine time spent (seconds) in each chamber.
Day 1 Pre-conditioning/Habituation: Animals are allowed to explore the entire testing chamber freely for 20 min. Animals that display a strong preference for one compartment (>75% time spent in one compartment) are excluded.
Rebalancing Procedure: Animals are rebalanced following day 1 scoring if the difference between groups for time spent in one compartment is greater than 15%.
Days 2-9 Conditioning: All animals are treated with saline on days 2, 4, 6, and 8 and with cocaine or saline on days 3, 5, 7, and 9 depending on their assigned group. Animals are confined to their assigned compartment (saline- or cocaine-paired compartment) for 20 minutes following dosing.
Day 10 Post-conditioning bias test: Animals are dosed once with either saline, MTEP or Compound 1 (1, 3 and 10 mg/kg) according to their assigned. Following dosing, animals are allowed to explore the testing chamber freely for 20 minutes with the compartment dividing door open. Their activity exploring the chamber is recorded for analysis.
Statistical Analysis: Statistical analysis was conducted using GraphPad Prism 9. Scorers blinded to the treatment groups scored the amount of time each animal spent exploring each chamber on days 1 and 10. For bias test data, a one-way analysis of variance (ANOVA) followed by Dunnett's post hoc test was used. Significance was set at p<0.05 and values exceeding two standard deviations of the mean were considered statistical outliers and were excluded from the analysis. Additionally, if an animal spent >85% or <15% of the time in one compartment even without any obvious signs of sedation or locomotor dysfunction, they were excluded from the analysis.

Regarding `COC(=O)[C@H]1[C@@H](OC(=O)c2ccccc2)C[C@@H]2CC[C@H]1N2C` [Cocaine], the “Percent time in compound-paired compartment, Mean Diff., Cocaine - Saline vs. Saline - Saline” value came out at 13.86% and the “Preference Scores (time difference drug-paired minus saline-paired), Mean Diff., Cocaine - Saline vs. Saline - Saline” value was determined as 332.9 s.
